Experimental data as given in patent US4393003A, “β-Lactamase inhibitors” (Hoffmann-La Roche Inc., priority 1981, dated 1983).
Like-named read-outs stand apart in the source and are kept apart here.

Tests used:
[1] = target: T1, type Ia cephalosporinase from Enterobacter cloacae (Enterobacter cloacae, UniProt P05364); assay: Cell-free enzyme assay, inhibition of nitrocefin hydrolysis; type: biochemical
T1 construct: purchased Miles Laboratories
Method: (§1) The test compound is preincubated with enzyme for 20 min. at 30° C. and pH 7. Chromogenic cephalosporin substrate, nitrocefin, is added and its initial rate of hydrolysis is recorded spectrophotometrically. Three enzyme preparations were employed:
(c) the type Ia cephalosporinase from Enterobacter cloacae purchased from Miles Laboratories.
(§2) Included for comparison purposes were the antibiotics cloxacillin and dicloxacillin. I50 (μM) is calculated as the concentration necessary to inhibit the rate of nitrocefin hydrolysis by 50%.

[2] = target: T2, inducible penicillinase from Staphylococcus aureus 1059B (Staphylococcus aureus, UniProt P00807); assay: as above; type: biochemical
T2 construct: the inducible penicillinase from Staphylococcus aureus 1059B; endogenous in cells; host or cells: Staphylococcus aureus 1059B
T2 sequence (P00807 25-281): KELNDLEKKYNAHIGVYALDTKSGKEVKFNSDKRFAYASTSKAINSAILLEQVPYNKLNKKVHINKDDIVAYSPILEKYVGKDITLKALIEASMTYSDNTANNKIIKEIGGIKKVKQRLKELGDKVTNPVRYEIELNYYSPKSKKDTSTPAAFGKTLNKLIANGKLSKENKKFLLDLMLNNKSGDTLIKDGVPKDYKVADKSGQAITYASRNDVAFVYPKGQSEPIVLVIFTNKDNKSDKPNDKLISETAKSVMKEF
Method: as §1
(a) the inducible penicillinase from Staphylococcus aureus 1059B,
as §2

[3] = target: T3, constitutive broad-spectrum TEM type beta-lactamase mediated by the resistance transfer factor R1 in Escherichia coli 1263B (Escherichia coli, UniProt P62593); assay: as above; type: biochemical; conditions: preincubated with enzyme 20 min, 30° C., pH 7; nitrocefin substrate; read-out: I50, Escherichia coli R1
T3 construct: mediated by the resistance transfer factor R1 in Escherichia coli 1263B; endogenous in cells; host or cells: Escherichia coli 1263B carrying resistance transfer factor R1
T3 sequence (P62593 24-286 limits assumed): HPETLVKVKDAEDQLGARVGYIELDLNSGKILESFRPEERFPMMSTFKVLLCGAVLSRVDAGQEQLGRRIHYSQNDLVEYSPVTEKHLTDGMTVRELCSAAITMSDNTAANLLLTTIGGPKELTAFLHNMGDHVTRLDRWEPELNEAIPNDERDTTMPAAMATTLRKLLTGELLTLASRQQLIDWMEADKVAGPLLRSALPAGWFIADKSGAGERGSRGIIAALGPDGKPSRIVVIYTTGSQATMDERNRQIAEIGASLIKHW
Method: as §1
(b) the constitutive broad-spectrum TEM type beta-lactamase mediated by the resistance transfer factor R1 in Escherichia coli 1263B, and
as §2

S. Marcescens S5 = assay: In vitro MIC by agar dilution, alone and mecillinam potentiation; type: cell-based; conditions: single agent, Mueller-Hinton agar, overnight 37° C.
Method: (§3) The efficacy of putative β-lactamase inhibitors is assessed by determining the effect of the test compounds on the minimal inhibitory concentrations (MICs) of β-lactamase-sensitive antibiotics against bacterial strains known to produce β-lactamases.
(§4) The antibacterial activity of the β-lactamase inhibitor against the test strains is determined by a standard agar dilution method. Serial two-fold dilutions of the β-lactamase inhibitor are prepared in water to give concentrations 10 times the final desired concentrations. The aqueous dilutions are then further diluted 1:10 in Mueller-Hinton (MH) agar. These agar mixtures are poured into petri plates and allowed to harden. Each plate, including a drug-free control plate, is inoculated by means of a Steers replicator with 0.05 mL of 10^-4 dilutions of the test organisms. The 10^'4 dilutions of the organisms are prepared in MH broth from overnight TS broth cultures. The plates are examined for growth after overnight incubation at 37° C. The lowest drug concentration at which three or fewer colonies are observed is considered to be the MIC.
(§5) The β-lactamase inhibitor is then tested for potentiation of the antibiotic mecillinam. Aqueous solutions are prepared containing serial two-fold dilutions of mecillinam in the presence of the β-lactamase inhibitor at a constant concentration 2-4 fold less than its MIC for the most sensitive of the test organisms. The same procedure as above is then followed. Controls include a drug-free plate and a plate containing the β-lactamase inhibitor at the concentration used in the test. The MIC of mecillinam as a single agent is also determined at the same time.

E. Coli ST 323 = assay: as above; type: cell-based; conditions: single agent, Mueller-Hinton agar, overnight 37° C.
Method: as §3, §4, §5

E. Coli 7289 = assay: as above; type: cell-based; conditions: single agent, Mueller-Hinton agar, overnight 37° C.
Method: as §3, §4, §5

E. Cloacae P99 = assay: as above; type: cell-based
Method: as §3, §4, §5

E. Coli K12R1 = assay: as above; type: cell-based; conditions: single agent, Mueller-Hinton agar, overnight 37° C.
Method: as §3, §4, §5

P. Aeruginosa 5700 = assay: as above; type: cell-based
Method: as §3, §4, §5

[4] = preincubated with enzyme 20 min, 30° C., pH 7, nitrocefin substrate, read-out: I50, Enterobacter cloacae
[5] = preincubated with enzyme 20 min, 30° C., pH 7, nitrocefin substrate, read-out: I50, Staphylococcus aureus
[6] = Escherichia coli, read-out: MIC

T1 sequence (P05364 21-381): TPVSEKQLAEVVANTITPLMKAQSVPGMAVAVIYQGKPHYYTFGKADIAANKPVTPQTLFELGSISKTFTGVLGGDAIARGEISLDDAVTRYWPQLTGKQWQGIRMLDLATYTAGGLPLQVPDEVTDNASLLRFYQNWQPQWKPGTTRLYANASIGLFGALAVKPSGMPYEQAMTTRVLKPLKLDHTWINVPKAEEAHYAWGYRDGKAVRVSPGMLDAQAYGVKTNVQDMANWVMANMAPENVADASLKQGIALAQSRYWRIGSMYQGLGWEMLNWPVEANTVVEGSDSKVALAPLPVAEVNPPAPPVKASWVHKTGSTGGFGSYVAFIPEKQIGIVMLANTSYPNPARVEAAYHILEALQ

Cc1onc(-c2ccccc2Cl)c1C(=O)N[C@@H]1C(=O)N2[C@@H]1SC(C)(C)[C@@H]2C(=O)O [Cloxacillin]
IC50 [1, 4]: 0.0015 µM | IC50 [2, 5]: 365 µM | IC50 [3]: 68 µM

Cc1onc(-c2c(Cl)cccc2Cl)c1C(=O)N[C@@H]1C(=O)N2[C@@H]1SC(C)(C)[C@@H]2C(=O)O [Dicloxacillin]
IC50 [1, 4]: 0.0014 µM | IC50 [2, 5]: 96 µM | IC50 [3]: 32 µM

CC1(C)S[C@@H]2[C@H](/N=C/N3CCCCCC3)C(=O)N2[C@H]1C(=O)O [Mecillinam, mecillinam]
MIC (S. Marcescens S5; Serratia marcescens, read-out: MIC): 4 µg/mL | MIC (E. Coli ST 323; [6]): 4 µg/mL | MIC (E. Coli 7289; [6]): 32 µg/mL | MIC (E. Cloacae P99; Enterobacter cloacae): 0.03 µg/mL | MIC (E. Coli K12R1; [6]): 1 µg/mL | MIC (P. Aeruginosa 5700; Pseudomonas aeruginosa): > 128 µg/mL

C[C@]12C[C@@]1(C(=O)O)N1C(=O)C[C@H]1S2(=O)=O [compound of formula I, [2S-(2α,4α,6α)]-4-Methyl-8-oxo-5-thia-1-azatricyclo[4.2.0.0^2,4]octane-2-carboxylic acid 5,5-dioxide]
MIC (S. Marcescens S5): Inert | MIC (E. Coli ST 323): Inert | MIC (E. Coli 7289): Inert | MIC (E. Cloacae P99; E. Cloacae P99, single agent, Mueller-Hinton agar, overnight 37° C.): Inert | MIC (E. Coli K12R1): Inert | MIC (P. Aeruginosa 5700; P. Aeruginosa 5700, single agent, Mueller-Hinton agar, overnight 37° C.): Inert | IC50 [1]: 69 µM | IC50 [2]: 6.7 µM | IC50 [3]: 1.1 µM
